Source: the supplement of paper PMC11061612

Experiments:
Assay in all cases: combination Emax (second highest fraction inhibited in the dose matrix, 72 h); higher = more inhibition; extreme values may be limits of the assay
769-P (Kidney Carcinoma) = system: 769-P (Kidney Carcinoma)
In short: (§1)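 Bliss excess equals the observed combination effect minus the expected value EA + EB − EA·EB, where EA and EB are the effects of each agent alone. Combination Emax is the second-highest inhibition within the matrix. Inhibition was scaled from CellTiter-Glo 2.0 luminescence, with 0 set by vehicle wells and 1 by blank wells, after 72 hours of two-drug dosing of cells plated in 1536-well plates.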

[1] = system: HCC1395 (Breast Carcinoma)
In short: as §1

KP-N-YN (Neuroblastoma) = system: KP-N-YN (Neuroblastoma)
In short: as §1

[2] = system: KYSE-220 (Esophageal Squamous Cell Carcinoma)
In short: as §1

[3] = system: LU-165 (Small Cell Lung Carcinoma)
In short: as §1

[4] = system: NCI-H1703 (Squamous Cell Lung Carcinoma)
In short: as §1

PEO1 (Ovarian Carcinoma) = system: PEO1 (Ovarian Carcinoma)
In short: as §1

[5] = system: SK-HEP-1 (Hepatocellular Carcinoma)
In short: as §1

[6] = system: SW620 (Colorectal Carcinoma)
In short: as §1

WM1552C (Melanoma) = system: WM1552C (Melanoma)
In short: as §1

C[C@@H](Nc1cc(F)cc(F)c1)c1cc(C(=O)N(C)C)cc2c(=O)cc(N3CCOCC3)oc12 [AZD8186] + CC(=O)c1c(C)c2cnc(Nc3ccc(N4CCNCC4)cn3)nc2n(C2CCCC2)c1=O [Palbociclib] (first compound max 10 µM, 7x7, partner max 10 µM)
combination Emax (769-P (Kidney Carcinoma)): 0.755 | combination Emax [1]: 0.382 | combination Emax (KP-N-YN (Neuroblastoma)): 0.433 | combination Emax [2]: 0.38 | combination Emax [3]: 0.31 | combination Emax [4]: 0.643 | combination Emax (PEO1 (Ovarian Carcinoma)): 0.454 | combination Emax [5]: 0.578 | combination Emax [6]: 0.481 | combination Emax (WM1552C (Melanoma)): 0.352

C[C@@H]1COCCN1c1cc(C2([S@](C)(=N)=O)CC2)nc(-c2ccnc3[nH]ccc23)n1 [AZD6738] + C1CC(C1)(C(=O)[O-])C(=O)[O-].N.N.[Pt+2] [Carboplatin] (first compound max 10 µM, 7x7, partner max 10 µM)
combination Emax (769-P (Kidney Carcinoma)): 0.878 | combination Emax [1]: 0.586 | combination Emax [2]: 0.827 | combination Emax [3]: 0.41 | combination Emax [4]: 0.932 | combination Emax (PEO1 (Ovarian Carcinoma)): 0.675 | combination Emax [5]: 0.166 | combination Emax [6]: 0.478 | combination Emax (WM1552C (Melanoma)): 0.564

CC1(C)CCC(CN2CCN(c3ccc(C(=O)NS(=O)(=O)c4ccc(NCC5CCOCC5)c([N+](=O)[O-])c4)c(Oc4cnc5[nH]ccc5c4)c3)CC2)=C(c2ccc(Cl)cc2)C1 [Venetoclax] + CS(=O)(=O)CCNCc1ccc(-c2ccc3ncnc(Nc4ccc(OCc5cccc(F)c5)c(Cl)c4)c3c2)o1 [Lapatinib] (first compound max 1 µM, 7x7, partner max 10 µM)
combination Emax (769-P (Kidney Carcinoma)): 0.909 | combination Emax [1]: 0.826 | combination Emax (KP-N-YN (Neuroblastoma)): 0.57 | combination Emax [2]: 0.917 | combination Emax [3]: 0.305 | combination Emax [4]: 0.385 | combination Emax (PEO1 (Ovarian Carcinoma)): 0.287 | combination Emax [5]: 0.308 | combination Emax [6]: 0.184 | combination Emax (WM1552C (Melanoma)): 0.187

C[C@@H](Oc1cc(-c2cnn(C3CCNCC3)c2)cnc1N)c1c(Cl)ccc(F)c1Cl [Crizotinib] + CC1=C(C(=CC=C1)Cl)NC(=O)C2=CN=C(S2)NC3=CC(=NC(=N3)C)N4CCN(CC4)CCO [Dasatinib] (first compound max 10 µM, 7x7, partner max 2 µM)
combination Emax (769-P (Kidney Carcinoma)): 0.961 | combination Emax [1]: 0.88 | combination Emax (KP-N-YN (Neuroblastoma)): 0.71 | combination Emax [2]: 0.968 | combination Emax [3]: 0.469 | combination Emax [4]: 0.799 | combination Emax (PEO1 (Ovarian Carcinoma)): 0.532 | combination Emax [5]: 0.433 | combination Emax [6]: 0.867 | combination Emax (WM1552C (Melanoma)): 0.959

C[C@@H]1COCCN1c1cc(C2([S@](C)(=N)=O)CC2)nc(-c2ccnc3[nH]ccc23)n1 [AZD6738] + Nc1ccn([C@@H]2O[C@H](CO)[C@@H](O)C2(F)F)c(=O)n1 [Gemcitabine] (first compound max 10 µM, 7x7, partner max 0.3 µM)
combination Emax (769-P (Kidney Carcinoma)): 0.865 | combination Emax [1]: 0.693 | combination Emax [2]: 0.857 | combination Emax [3]: 0.551 | combination Emax [4]: 0.954 | combination Emax (PEO1 (Ovarian Carcinoma)): 0.696 | combination Emax [5]: 0.645 | combination Emax [6]: 0.895 | combination Emax (WM1552C (Melanoma)): 0.868

CN(CCO)CC[C@H](CSc1ccccc1)Nc1ccc(S(=O)(=O)NC(=O)c2ccc(N3CCC([C@@H](O)c4ccccc4-c4ccc(Cl)cc4)CC3)cc2)cc1S(=O)(=O)C(F)(F)F [AZD4320] + CS(=O)(=O)CCNCc1ccc(-c2ccc3ncnc(Nc4ccc(OCc5cccc(F)c5)c(Cl)c4)c3c2)o1 [Lapatinib] (first compound max 1 µM, 7x7, partner max 10 µM)
combination Emax (769-P (Kidney Carcinoma)): 0.989 | combination Emax [1]: 0.96 | combination Emax [2]: 0.967 | combination Emax [3]: 0.943 | combination Emax [4]: 0.862 | combination Emax (PEO1 (Ovarian Carcinoma)): 0.829 | combination Emax [5]: 0.909 | combination Emax [6]: 0.741 | combination Emax (WM1552C (Melanoma)): 0.571

C=CCn1c(=O)c2cnc(Nc3ccc(N4CCN(C)CC4)cc3)nc2n1-c1cccc(C(C)(C)O)n1 [AZD1775] + Nc1ccn([C@@H]2O[C@H](CO)[C@@H](O)C2(F)F)c(=O)n1 [Gemcitabine] (first compound max 1 µM, partner max 0.3 µM)
combination Emax (769-P (Kidney Carcinoma)): 0.868 | combination Emax [1]: 0.515 | combination Emax [2]: 0.793 | combination Emax [3]: 0.508 | combination Emax [4]: 0.984 | combination Emax (PEO1 (Ovarian Carcinoma)): 0.65 | combination Emax [5]: 0.514 | combination Emax [6]: 0.9 | combination Emax (WM1552C (Melanoma)): 0.72

Cc1c2c(nn1C)CSCc1cc(n(C)n1)CSc1cc(c3ccccc3c1)OCCCc1c(C(=O)O)n(C)c3c-2c(Cl)ccc13 [AZD5991] + Nc1ccn([C@@H]2O[C@H](CO)[C@@H](O)C2(F)F)c(=O)n1 [Gemcitabine] (first compound max 1 µM, 7x7, partner max 0.3 µM)
combination Emax (769-P (Kidney Carcinoma)): 0.701 | combination Emax [2]: 0.724 | combination Emax [3]: 0.423 | combination Emax [4]: 0.954 | combination Emax (PEO1 (Ovarian Carcinoma)): 0.544 | combination Emax [5]: 0.535 | combination Emax [6]: 0.657 | combination Emax (WM1552C (Melanoma)): 0.899

C=CCn1c(=O)c2cnc(Nc3ccc(N4CCN(C)CC4)cc3)nc2n1-c1cccc(C(C)(C)O)n1 [AZD1775] + CCc1c2c(nc3ccc(O)cc13)-c1cc3c(c(=O)n1C2)COC(=O)[C@]3(O)CC [SN-38] (first compound max 1 µM, partner max 0.3 µM)
combination Emax (769-P (Kidney Carcinoma)): 0.881 | combination Emax [1]: 0.733 | combination Emax [2]: 0.909 | combination Emax [3]: 0.588 | combination Emax [4]: 0.992 | combination Emax (PEO1 (Ovarian Carcinoma)): 0.768 | combination Emax [5]: 0.622 | combination Emax [6]: 0.949 | combination Emax (WM1552C (Melanoma)): 0.611
